Laboratory results: patent US7323465B2, “Alkansulfonamides as endothelin antagonists” (Actelion Pharmaceuticals Ltd., priority 2002, dated 2008)

Key:
[1] = molecular target: T1, human recombinant ETB receptors (Homo sapiens, UniProt P24530); experiment: Inhibition of [125I]ET-1 binding to membranes from CHO cells carrying human ETB receptors
T1 construct: expressed in transfected cells; host or cells: CHO cells (microsomal membranes)
T1 sequence (P24530 27-442): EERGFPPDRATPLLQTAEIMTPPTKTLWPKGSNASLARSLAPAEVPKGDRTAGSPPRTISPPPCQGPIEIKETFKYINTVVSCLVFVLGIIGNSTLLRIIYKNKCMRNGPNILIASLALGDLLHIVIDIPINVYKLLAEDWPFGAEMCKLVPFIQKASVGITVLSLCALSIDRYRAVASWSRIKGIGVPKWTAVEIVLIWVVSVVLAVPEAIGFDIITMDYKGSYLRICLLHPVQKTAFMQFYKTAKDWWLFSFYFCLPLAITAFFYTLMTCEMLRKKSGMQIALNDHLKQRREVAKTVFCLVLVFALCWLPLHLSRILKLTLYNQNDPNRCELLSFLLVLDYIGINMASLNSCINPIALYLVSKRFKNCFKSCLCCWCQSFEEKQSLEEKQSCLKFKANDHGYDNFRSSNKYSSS
Method: (§1) 1) Inhibition of Endothelin Binding to Membranes from CHO Cells Carrying Human ET Receptors:
(§2) For competition binding studies, membranes of CHO cells expressing human recombinant ETA or ETB receptors were used.
(§3) The assay was performed in 200 uL 50 mM Tris/HCl buffer, pH 7.4, including 25 mM MnCl2, 1 mM EDTA and 0.5% (w/v) BSA in polypropylene microtiter plates. […] After 2 h, the membranes were filtered on filterplates containing GF/C filters (Unifilterplates from Canberra Packard S.A. Zürich, Switzerland). To each well, 50 uL of scintillation cocktail was added (MicroScint 20, Canberra Packard S.A. Zürich, Switzerland) and the filter plates counted in a microplate counter (TopCount, Canberra Packard S.A. Zürich, Switzerland).
(§4) All the test compounds were dissolved, diluted and added in DMSO.

[2] = molecular target: T2, human recombinant ETA receptors (Homo sapiens, UniProt P25101); experiment: Inhibition of [125I]ET-1 binding to membranes from CHO cells carrying human ETA receptors
T2 construct: expressed in transfected cells; host or cells: CHO cells (microsomal membranes)
T2 sequence (P25101 21-427): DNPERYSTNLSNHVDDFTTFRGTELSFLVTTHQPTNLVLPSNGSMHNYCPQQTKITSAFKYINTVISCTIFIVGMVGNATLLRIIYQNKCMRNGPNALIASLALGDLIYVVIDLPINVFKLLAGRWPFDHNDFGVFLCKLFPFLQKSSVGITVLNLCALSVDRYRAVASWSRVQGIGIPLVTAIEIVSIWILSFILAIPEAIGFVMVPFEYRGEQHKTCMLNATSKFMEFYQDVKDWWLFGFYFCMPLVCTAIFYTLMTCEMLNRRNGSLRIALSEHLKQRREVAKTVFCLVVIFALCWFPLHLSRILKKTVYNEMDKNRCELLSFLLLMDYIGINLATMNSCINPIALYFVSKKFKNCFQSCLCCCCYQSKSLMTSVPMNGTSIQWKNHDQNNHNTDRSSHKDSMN
Method: as §1, §2, §3, §4
Also: 2.5% DMSO.

IC50 [1] [nM]	IC50 [2] [nM]	SMILES
989	5.99	CCS(=O)(=O)Nc1ncnc(OCCOc2ncc(SC)cn2)c1-c1ccc(C)cc1 [Example 2, ethanesulfonic acid {6-[2-(5-methylsulfanyl-pyrimidin-2-yloxy)-ethoxy]-5-p-tolyl-pyrimidin-4-yl}-amide]
> 1000	3.6	CCCS(=O)(=O)Nc1ncnc(OCCOc2ncc(SC)cn2)c1-c1ccc(C)cc1 [Example 5, propane-1-sulfonic acid {6-[2-(5-methylsulfanyl-pyrimidin-2-yloxy)-ethoxy]-5-p-tolyo-pyrimidin-4-yl}-amide]
> 1000	17.1	CCCS(=O)(=O)Nc1ncnc(OCCOc2ncc(OC)cn2)c1-c1ccc(C)cc1 [Example 6, propane-1-sulfonic acid {6-[2-(5-methoxy-pyrimidin-2-yloxy)-ethoxy]-5-p-tolyl-pyrimidin-4-yl}-amide]
	16.3	CCS(=O)(=O)Nc1nc(-c2ncccn2)nc(OCCOc2ncc(Br)cn2)c1Oc1ccccc1OC [Example 7, ethanesulfonic acid [6-[2-(5-bromo-pyrimidin-2-yloxy)-ethoxy]-5-(2-methoxy-phenoxy)-[2,2′]bipyrimidinyl-4-yl]-amide]
	11	CCCS(=O)(=O)Nc1nc(-c2ncccn2)nc(OCCOc2ncc(Br)cn2)c1Oc1ccccc1OC [Example 8]
689	42.6	CCCS(=O)(=O)Nc1nc(-c2ncccn2)nc(OCCOc2ncc(OC)cn2)c1Oc1ccccc1OC [Example 10, n-propanesulfonic acid [6-[2-(5-methoxy-pyrimidin-2-yloxy)-ethoxy]-5-(2-methoxy-phenoxy)-[2,2′]bipyrimidinyl-4-yl]-amide]
79	12	COc1ccccc1Oc1c(NS(C)(=O)=O)nc(-c2ncccn2)nc1OCCOc1ncc(SC)cn1 [Example 16]
841	205	COc1cnc(OCCOc2ncnc(NS(C)(=O)=O)c2Oc2ccccc2OC)nc1 [Example 18]
155	22	COc1ccccc1Oc1c(NS(C)(=O)=O)ncnc1OCCOc1ncc(SC)cn1 [Example 19]
881	19	CCCCS(=O)(=O)Nc1nc(-c2ncccn2)nc(OCCOc2ncc(OC)cn2)c1Oc1ccccc1OC [Example 26]
153	2.8	CCCCS(=O)(=O)Nc1nc(-c2ncccn2)nc(OCCOc2ncc(SC)cn2)c1Oc1ccccc1OC [Example 27]
595	2.9	CCCCS(=O)(=O)Nc1ncnc(OCCOc2ncc(Br)cn2)c1Oc1cccc(OC)c1 [Example 28]
111	2.3	CCCCS(=O)(=O)Nc1ncnc(OCCOc2ncc(SC)cn2)c1Oc1cccc(OC)c1 [Example 30]
180	1.8	CCCCS(=O)(=O)Nc1ncnc(OCCOc2ncc(S(C)(=O)=O)cn2)c1Oc1cccc(OC)c1 [Example 31]
> 1000	11	CCCS(=O)(=O)Nc1ncnc(OCCOc2ncc(Br)cn2)c1Oc1ccccc1OC [Example 32]
636	19	CCS(=O)(=O)Nc1ncnc(OCCOc2ncc(Br)cn2)c1Oc1ccccc1OC [Example 40]
> 1000	2.9	Cc1ccc(-c2c(NS(C)(=O)=O)ncnc2OCCOc2ncc(Br)cn2)cc1 [Example 47]
> 1000	23	COc1cnc(OCCOc2ncnc(NS(C)(=O)=O)c2-c2ccc(C)cc2)nc1 [Example 48]
> 1000	2.3	CSc1cnc(OCCOc2ncnc(NS(C)(=O)=O)c2-c2ccc(C)cc2)nc1 [Example 49]
824	1.1	CS(=O)(=O)Nc1ncnc(OCCOc2ncc(Br)cn2)c1-c1ccc(Br)cc1 [Example 53]
	0.46	CCCS(=O)(=O)Nc1ncnc(OCCOc2ncc(Br)cn2)c1-c1ccc(Br)cc1 [Example 70]

Second part, the molecule before the results:

SMILES	IC50 [1] [nM]	IC50 [2] [nM]
CCS(=O)(=O)Nc1ncnc(OCCOc2ncc(Br)cn2)c1-c1ccc(C)cc1 [Example 1, ethanesulfonic acid {6-[2-(5-bromo-pyrimidin-2-yloxy)-ethoxy]-5-p-tolyl-pyrimidin-4-yl}-amide]	> 1000	3.96
CCS(=O)(=O)Nc1ncnc(OCCOc2ncc(OC)cn2)c1-c1ccc(C)cc1 [Example 3, ethanesulfonic acid {6-[2-(5-methoxy-pyrimidin-2-yloxy)-ethoxy]-5-p-tolyl-pyrimidin-4-yl}-amide]	> 1000	38.2
CCCS(=O)(=O)Nc1ncnc(OCCOc2ncc(Br)cn2)c1-c1ccc(C)cc1 [Example 4, n-propanesulfonic acid {6-[2-(5-bromo-pyrimidin-2-yloxy)-ethoxy]-5-p-tolyl-pyrimidin-4-yl}-amide]	> 1000	6.34
CCCS(=O)(=O)Nc1nc(-c2ncccn2)nc(OCCOc2ncc(SC)cn2)c1Oc1ccccc1OC [Example 9, n-propanesulfonic acid [6-[2-(5-methylsulfanyl-pyrimidin-2-yloxy)-ethoxy]-5-(2-methoxy-phenoxy)-[2,2′]bipyrimidinyl-4-yl]-amide]	187	5.2
CCS(=O)(=O)Nc1nc(-c2ncccn2)nc(OCCOc2ncc(SC)cn2)c1Oc1ccccc1OC [Example 11, ethanesulfonic acid [6-[2-(5-methylsulfanyl-pyrimidin-2-yloxy)-ethoxy]-5-(2-methoxy-phenoxy)-[2,2′]bipyrimidinyl-4-yl]-amide]	59	5.3
CCS(=O)(=O)Nc1nc(-c2ncccn2)nc(OCCOc2ncc(OC)cn2)c1Oc1ccccc1OC [Example 12, ethanesulfonic acid [6-[2-(5-methoxy-pyrimidin-2-yloxy)-ethoxy]-5-(2-methoxy-phenoxy)-[2,2′]bipyrimidinyl-4-yl]-amide]	469	59
COc1ccccc1Oc1c(NS(C)(=O)=O)nc(-c2ncccn2)nc1OCCOc1ncc(Br)cn1 [Example 14]		27
COc1cnc(OCCOc2nc(-c3ncccn3)nc(NS(C)(=O)=O)c2Oc2ccccc2OC)nc1 [Example 15]	729	125
COc1ccccc1Oc1c(NS(C)(=O)=O)ncnc1OCCOc1ncc(Br)cn1 [Example 17]	599	33
COc1ccccc1Oc1c(NS(C)(=O)=O)ncnc1OCCOc1ncc(S(C)(=O)=O)cn1 [Example 20]	> 1000	81
CCCCS(=O)(=O)Nc1nc(-c2ncccn2)nc(OCCOc2ncc(Br)cn2)c1Oc1ccccc1OC [Example 25]		6.5
CCCCS(=O)(=O)Nc1ncnc(OCCOc2ncc(OC)cn2)c1Oc1cccc(OC)c1 [Example 29]	402	8.4
CCCS(=O)(=O)Nc1ncnc(OCCOc2ncc(OC)cn2)c1Oc1ccccc1OC [Example 33]	> 1000	40
CCCS(=O)(=O)Nc1ncnc(OCCOc2ncc(SC)cn2)c1Oc1ccccc1OC [Example 34]	159	6.5
CCCS(=O)(=O)Nc1ncnc(OCCOc2ncc(S(C)(=O)=O)cn2)c1Oc1ccccc1OC [Example 35]	> 1000	11
CCS(=O)(=O)Nc1ncnc(OCCOc2ncc(OC)cn2)c1Oc1ccccc1OC [Example 41]	678	28
CCS(=O)(=O)Nc1ncnc(OCCOc2ncc(SC)cn2)c1Oc1ccccc1OC [Example 42]	105	5.7
Cc1ccc(-c2c(NS(C)(=O)=O)ncnc2OCCCOc2ncc(Br)cn2)cc1 [Example 50]	> 1000	397
COc1cnc(OCCOc2ncnc(NS(C)(=O)=O)c2-c2ccc(Br)cc2)nc1 [Example 54]	> 1000	18
CSc1cnc(OCCOc2ncnc(NS(C)(=O)=O)c2-c2ccc(Br)cc2)nc1 [Example 55]	454	1.3
CS(=O)(=O)Nc1ncnc(OCCOc2ncc(S(C)(=O)=O)cn2)c1-c1ccc(Br)cc1 [Example 56]	359	1.6
CS(=O)(=O)Nc1ncnc(OCCOc2ncc(C3CC3)cn2)c1-c1ccc(Br)cc1 [Example 57]	> 1000	6.9
CCCCS(=O)(=O)Nc1ncnc(OCCOc2ncc(Br)cn2)c1-c1ccc(Br)cc1 [Example 81]		0.54
